Laboratory results taken from ChEMBL document CHEMBL3885861, “Open TG-GATES”.

Species: Rattus norvegicus
Assay: Open TG-GATES - Regimen: Single
Type: toxicity, organism-based, Sprague-Dawley
Design: regimen Single, gender Male, age 6 weeks
Settings: in vivo, po, 0 mg/kg, route gavage, dose level Control; for APTT / Bas / Eos / Fbg / Hb / Ht / Lym / MCH / MCHC / MCV / Mono / Neu / PT / RBC / Ret / WBC / Plat: tissue Blood; for KIDNEY_L / KIDNEY_R / KIDNEY_TOTAL: tissue Kidney; for LIVER: tissue Liver; for ALP / ALT / AST / BUN / CRE / Ca / DBIL / GLC / IP / K / LDH / Na / PL / RALB / TBIL / TC / TG / TP / gamma-GTP: tissue Plasma

CSc1ccc2c(c1)N(CCC1CCCCN1C)c1ccccc1S2 (configuration not stated) [THIORIDAZINE]
TERMINAL_BW (3 h): 216.6 g | APTT (3 h): 16 s | Bas (3 h): 0% | Eos (3 h): 0.6% | Fbg (3 h): 206.6 mg/dL | Hb (3 h): 12.9 g/dL | Ht (3 h): 38.9% | Lym (3 h): 82.2% | MCH (3 h): 21.8 pg | MCHC (3 h): 33.2% | MCV (3 h): 65.7 fL | Mono (3 h): 7.4% | Neu (3 h): 10% | PT (3 h): 12.1 s | RBC (3 h): 592 x10_4/ul | Ret (3 h): 8.6% | WBC (3 h): 109.6 x10_2/uL | KIDNEY_L (3 h): 1 g | KIDNEY_R (3 h): 1 g | KIDNEY_TOTAL (3 h): 2 g | LIVER (3 h): 10.6 g | ALP (3 h): 789.2 IU/L | ALT (3 h): 37.2 IU/L | AST (3 h): 71 IU/L | BUN (3 h): 12.4 mg/dL | CRE (3 h): 0.5 mg/dL | Ca (3 h): 11.4 mg/dL | DBIL (3 h): 0.006 mg/dL | GLC (3 h): 197.6 mg/dL | IP (3 h): 10.1 mg/dL | K (3 h): 5 meq/L | LDH (3 h): 94.4 IU/L | Na (3 h): 137.4 meq/L | PL (3 h): 136.2 mg/dL | RALB (3 h): 3.8 g/dL | TBIL (3 h): 0.3 mg/dL | TC (3 h): 72.2 mg/dL | TG (3 h): 93.4 mg/dL | TP (3 h): 5.5 g/dL | gamma-GTP (3 h): 0.8 IU/L | TERMINAL_BW (6 h): 212.3 g | APTT (6 h): 16.3 s | Bas (6 h): 0% | Eos (6 h): 1% | Fbg (6 h): 216.8 mg/dL | Hb (6 h): 13.7 g/dL | Ht (6 h): 40.9% | Lym (6 h): 74% | MCH (6 h): 21.5 pg | MCHC (6 h): 33.3% | MCV (6 h): 64.4 fL | Mono (6 h): 8.2% | Neu (6 h): 17.2% | PT (6 h): 12.1 s | Plat (6 h): 98.4 x10_4/uL | RBC (6 h): 635.6 x10_4/ul | Ret (6 h): 7.7% | WBC (6 h): 117.4 x10_2/uL | KIDNEY_L (6 h): 0.9 g | KIDNEY_R (6 h): 1 g | KIDNEY_TOTAL (6 h): 1.9 g | LIVER (6 h): 9.5 g | ALP (6 h): 834 IU/L | ALT (6 h): 28 IU/L | AST (6 h): 60.4 IU/L | BUN (6 h): 12.4 mg/dL | CRE (6 h): 0.5 mg/dL | Ca (6 h): 10.9 mg/dL | DBIL (6 h): 0.016 mg/dL | GLC (6 h): 189 mg/dL | IP (6 h): 10.1 mg/dL | K (6 h): 5 meq/L | LDH (6 h): 100.4 IU/L | Na (6 h): 137.4 meq/L | PL (6 h): 147 mg/dL | RALB (6 h): 3.8 g/dL | TBIL (6 h): 0.4 mg/dL | TC (6 h): 80.2 mg/dL | TG (6 h): 84.4 mg/dL | TP (6 h): 5.5 g/dL | gamma-GTP (6 h): 2 IU/L | TERMINAL_BW (9 h): 210.2 g | APTT (9 h): 16.6 s | Bas (9 h): 0% | Eos (9 h): 1.2% | Fbg (9 h): 221.4 mg/dL | Hb (9 h): 13.4 g/dL | Ht (9 h): 40.6% | Lym (9 h): 73.2% | MCH (9 h): 21.6 pg | MCHC (9 h): 33.1% | MCV (9 h): 65.4 fL | Mono (9 h): 8.4% | Neu (9 h): 17.2% | PT (9 h): 12.2 s | Plat (9 h): 111.7 x10_4/uL | RBC (9 h): 620.6 x10_4/ul | Ret (9 h): 7.6% | WBC (9 h): 117.1 x10_2/uL | KIDNEY_L (9 h): 0.9 g | KIDNEY_R (9 h): 1 g | KIDNEY_TOTAL (9 h): 1.9 g | LIVER (9 h): 8.7 g | ALP (9 h): 724 IU/L | ALT (9 h): 30.6 IU/L | AST (9 h): 67.4 IU/L | BUN (9 h): 12.2 mg/dL | CRE (9 h): 0.5 mg/dL | Ca (9 h): 11.1 mg/dL | DBIL (9 h): 0.034 mg/dL | GLC (9 h): 197.6 mg/dL | IP (9 h): 10.7 mg/dL | K (9 h): 4.9 meq/L | LDH (9 h): 63 IU/L | Na (9 h): 139.6 meq/L | PL (9 h): 147.4 mg/dL | RALB (9 h): 4 g/dL | TBIL (9 h): 0.3 mg/dL | TC (9 h): 87.6 mg/dL | TG (9 h): 35.8 mg/dL | TP (9 h): 5.6 g/dL | gamma-GTP (9 h): 1.2 IU/L | TERMINAL_BW (24 h): 232.2 g | APTT (24 h): 15.8 s | Bas (24 h): 0% | Eos (24 h): 0.8% | Fbg (24 h): 225 mg/dL | Hb (24 h): 13.2 g/dL | Ht (24 h): 38.9% | Lym (24 h): 73% | MCH (24 h): 22 pg | MCHC (24 h): 33.9% | MCV (24 h): 64.9 fL | Mono (24 h): 9.4% | Neu (24 h): 16.8% | PT (24 h): 12.2 s | Plat (24 h): 107.1 x10_4/uL | RBC (24 h): 600.2 x10_4/ul | Ret (24 h): 8.3% | WBC (24 h): 127.4 x10_2/uL | KIDNEY_L (24 h): 1 g | KIDNEY_R (24 h): 1 g | KIDNEY_TOTAL (24 h): 2 g | LIVER (24 h): 11.4 g | ALP (24 h): 895 IU/L | ALT (24 h): 36 IU/L | AST (24 h): 65.2 IU/L | BUN (24 h): 18.4 mg/dL | CRE (24 h): 0.5 mg/dL | Ca (24 h): 11 mg/dL | DBIL (24 h): 0.016 mg/dL | GLC (24 h): 193.4 mg/dL | IP (24 h): 8.1 mg/dL | K (24 h): 5.1 meq/L | LDH (24 h): 73 IU/L | Na (24 h): 138.4 meq/L | PL (24 h): 150.8 mg/dL | RALB (24 h): 3.9 g/dL | TBIL (24 h): 0.3 mg/dL | TC (24 h): 81.6 mg/dL | TG (24 h): 87.8 mg/dL | TP (24 h): 5.7 g/dL
